US20260130933A1, “PHARMACEUTICAL COMPOSITION FOR PREVENTION OR TREATMENT OF NEPHROPATHY AND/OR DIABETES MELLITUS, COMPRISING ENAVOGLIFLOZIN” (DAEWOONG PHARMACEUTICAL CO., LTD., priority 2022, published 2026)

Assay: Example 7: SD rats treated with streptozotocin (diabetic nephropathy model), oral once a day for 12 weeks: urinary albumin, GS score, TA score
Assay type: in vivo
Protocol: Accordingly, 60 mg/kg of streptozotocin was administered intravenously to the SD rats and used as an animal model of diabetic nephropathy.

OC[C@H]1O[C@@H](c2cc(Cc3ccc(C4CC4)cc3)c(Cl)c3c2CCO3)[C@H](O)[C@@H](O)[C@@H]1O [Enavogliflozin, (2S,3R,4R,5S,6R)-2-(7-chloro-6 (4-cyclopropylbenzyl)-2,3-dihydrobenzofuran-4-yl)-6-(hydroxymethyl)tetrahydro-2H-pyran-3,4,5-triol]
Reduction of proteinuria compared with other SGLT2 inhibitors (same dose groups (1 mg/kg)): most excellent effect in reducing proteinuria
TA score (tubular atrophy) (week 12): significant dose-dependent decrease in tubular atrophy
GS score (glomerulosclerosis) (week 12, all enavogliflozin-administered groups): trend toward a decrease in the GS score
Urinary albumin concentration (proteinuria) (weeks 4, 8 and 12): dose-dependent decrease in proteinuria
